Assay results: patent publication US20250205199A1, “5-METHOXY-N,N-[…][…] THE TREATMENT OF SOCIAL/EMOTIONAL […] DETACHMENT” (GH RESEARCH IRELAND LIMITED, priority 2022, published 2025)

How the values were obtained:
[1] = Pharmacokinetics of 5-MeO-DMT and bufotenine after inhalation; assay type: in vivo, human; conditions: for Plasma concentration as % of Cmax: whole dose range tested (6 mg, 12 mg, 18 mg)
Method: This applies over the whole dose range tested (6 mg, 12 mg, 18 mg). […] Uptitration as disclosed herein will not lead to accumulation and thus not to higher plasma concentrations, for instance, 10 minutes, 2 hours, or 3 hours after administration.
Blood samples were obtained at 1; 2; 4; 7; 10; 15; 20; 30; 45 min and 1; 1.5; 2; 3; 4 hours after administration.
PK parameters were generated by algebraic analysis of the concentration versus time plots for each individual. The analysis was carried out using the software Phoenix WinNonlin 6.3.

[2] = test system: patients with treatment-resistant major depressive disorder (TRD); test: Phase 1/2 clinical trial of inhaled 5-MeO-DMT in patients with TRD
Method: Patients were assigned to different groups. In the context of the present invention, the group who received a single, 12 mg dose and the group who underwent an intra-day individualized dosing regimen (IDR) that allowed for multiple, escalating doses (6 mg, 12 mg and 18 mg) within a single day, driven by the intensity of the patient-reported psychedelic experience are of interest.
The data gathered include the assessment of the treated patients against several scales including the Montgomery-Åsberg Depression Rating Scale (MADRS) and the Brief Psychiatric Rating Scale (BPRS).
This trial was designed in two parts. Part A was an open-label, single-arm, single-dose Phase 1 trial with two dose levels (12 mg (n=4) and 18 mg (n=4)). […] The primary endpoint of Part B was to assess the effects on the severity of depression, as assessed by the proportion of patients in remission on day seven after dosing, defined as a MADRS total score of less than or equal to 10.

[3] = test system: patients with postpartum depression (PPD); test: Clinical trial of inhaled 5-MeO-DMT in postpartum depression (one patient so far)
Method: The single-arm, open-label clinical trial will involve 15 adult female patients with clinically diagnosed postpartum depression (PPD).
The second dose (12 mg) will only be administered if: • a. […] The 6 mg dose was safe and well-tolerated according to the investigator, • c. Any psychoactive effects (PsE) of the prior dose have subsided, and • d. Pre-dose vital parameters and forced expiratory volume in one second (FEV1) are in normal range, or if outside of the normal range, are not clinically significant according to the investigator. • 3. Similarly, a third dose (18 mg) will only be administered if: • a. […] The 12 mg dose was safe and well-tolerated according to the investigator, and • c. Any PsE of the prior dose have subsided, and • d. Pre-dose vital parameters and forced expiratory volume in one second (FEV1) are in normal range, or if outside of the normal range, are not clinically significant according to the investigator.
The patients will be assessed for a peak psychedelic experience (based on a patient-scored visual analogue scale, the PE scale), sedation, and other endpoints after dosing. Follow-up visits are planned for Day 1, and Day 7 after the dosing day.
The following criteria must be met by all patients considered for clinical trial participation: • 1. Is female and in the age range between 18 and 45 years (inclusive) at screening. • 2. Has a body mass index (BMI) in the range of 18.5 and 35 kg/m^2 (inclusive) at screening. • 3. Meets the trial criteria for PPD as assessed by a trial psychiatrist or registered psychologist: • a. Diagnosis of Major Depressive Disorder without psychotic features, confirmed by the Mini-International Neuropsychiatric Interview (MINI), with peri-partum onset that began no earlier than gestation and no later than the first 4 weeks postpartum. • b. Has a Montgomery-Åsberg Depression Rating Scale (MADRS) total score of equal to or greater than 28 at screening and pre-dose on Day 0. • 6. […] Patients must have a negative pregnancy test at screening and on the pre-test day (Day −1). • 5. Is willing to delay start of other antidepressant or anxiety medication until after the end of the trial at Day 7 and agrees to keep any psychotherapy unchanged during the trial.
A potential patient who meets any of the following key exclusion criteria will be excluded from participation in this trial: • 1. Has, based on history, psychiatric assessment, and evaluation of the MINI, a current or prior diagnosis of bipolar disorder, a manic or hypomanic episode, a psychotic disorder, Major Depressive Disorder (MDD) or other mood disorder with psychotic features, obsessive compulsive disorder, post-traumatic stress disorder (PTSD), autism spectrum disorder, borderline personality disorder, schizophrenia, delusional disorder, paranoid personality disorder, schizoaffective disorder, clinically significant intellectual disability, or any other psychiatric comorbidity that renders the patient unsuitable for the trial according to the investigator's judgment. • 2. Has one or more first or second degree relatives with a current or previously diagnosed bipolar disorder, psychotic disorder or other mood disorder (including MDD) with psychotic features. • 3. Is in the judgement of a trial psychiatrist or registered psychologist, at significant risk for suicide based on history, psychiatric assessment, and evaluation of suicidal ideation and suicidal behaviour based on the Columbia-Suicide Severity Rating Scale (C-SSRS). • 4. Has taken anti-depressive medication within 14 days or 5 half-lives (whichever is longer) prior to dosing (exception: within the last 5 weeks in the case of fluoxetine). • 5.

[4] = oral; cited from earlier work
[5] = test system: patients with treatment resistant bipolar depression; conditions: single 0.5 mg·kg^−1 infusion; cited from earlier work
[6] = 12 mg n=4, 2 hours after dose, baseline 16

COc1ccc2[nH]cc(CCN(C)C)c2c1 [5-MeO-DMT]
Plasma concentration as % of Cmax ([1]; 10 minutes after inhalation): ≤ 10% | Plasma concentration as % of Cmax ([1]; 2 hours after inhalation): ≤ 1% | Detectability in the plasma ([1]; 3 hours after inhalation, whole dose range tested): no longer detectable | Pharmacokinetic measurements under uptitration dosing schemes versus single doses ([1]; dosing schemes relying on uptitration): Substantially similar results | MADRS Suicidal Thoughts improvement ([2]; 12 mg n=4, 2 hours after dose, baseline 8): 5 points | MADRS Inner Tension improvement ([2]; 12 mg n=4, 2 hours after dose, baseline 13): 11 | MADRS Concentration Difficulties improvement [2, 6]: 9 | MADRS Inability to Feel improvement [2, 6]: 7 points | MADRS Lassitude improvement [2, 6]: 6 | MADRS Pessimistic Thoughts improvement [2, 6]: 8 | BPRS Blunted Affect improvement ([2]; 12 mg n=4, 3 hours after dose, baseline 11): 3 points | BPRS Emotional Withdrawal improvement ([2]; 12 mg n=4, 3 hours after dose, baseline 13): 2 points | BPRS Tension improvement ([2]; 12 mg n=4, 3 hours after dose, baseline 14): 5 | BPRS Guilt Feelings improvement ([2]; 12 mg n=4, 3 hours after dose, baseline 18): 9 | BPRS Anxiety improvement ([2]; 12 mg n=4, 3 hours after dose, baseline 25): 14 | MADRS Inner Tension improvement ([2]; 12 mg n=4, day 1, baseline 13): 10 | BPRS Tension improvement ([2]; 12 mg n=4, day 1, baseline 14): 8 | MADRS Concentration Difficulties improvement ([2]; 12 mg n=4, day 1, baseline 16): 14 | MADRS Lassitude improvement ([2]; 12 mg n=4, day 1, baseline 16): 16 | MADRS Pessimistic Thoughts improvement ([2]; 12 mg n=4, day 1, baseline 16): 9 | BPRS Guilt Feelings improvement ([2]; 12 mg n=4, day 1, baseline 18): 13 | BPRS Anxiety improvement ([2]; 12 mg n=4, day 1, baseline 25): 19 | MADRS Reduced Sleep percentage improvement ([2]; 12 mg n=4, day 7, baseline 12): 50.00% | MADRS Inner Tension improvement ([2]; 12 mg n=4, day 7, baseline 13): 8 | BPRS Tension improvement ([2]; 12 mg n=4, day 7, baseline 14): 8 | MADRS Concentration Difficulties improvement ([2]; 12 mg n=4, day 7, baseline 16): 13 | MADRS Lassitude improvement ([2]; 12 mg n=4, day 7, baseline 16): 13 | MADRS Pessimistic Thoughts improvement ([2]; 12 mg n=4, day 7, baseline 16): 8 | BPRS Guilt Feelings improvement ([2]; 12 mg n=4, day 7, baseline 18): 13 | BPRS Anxiety improvement ([2]; 12 mg n=4, day 7, baseline 25): 19 | MADRS Suicidal Thoughts improvement ([2]; IDR n=8, 2 hours after last dose, baseline 11): 8 points | MADRS Inner Tension improvement ([2]; IDR n=8, 2 hours after last dose, baseline 26): 15 | MADRS Lassitude improvement ([2]; IDR n=8, 2 hours after last dose, baseline 27): 17 | MADRS Pessimistic Thoughts improvement ([2]; IDR n=8, 2 hours after last dose, baseline 28): 21 | MADRS Concentration Difficulties improvement ([2]; IDR n=8, 2 hours after last dose, baseline 30): 19 | MADRS Inability to Feel improvement ([2]; IDR n=8, 2 hours after last dose, baseline 36): 24 points | BPRS Emotional Withdrawal improvement ([2]; IDR n=8, 3 hours after last dose, baseline 13): 5 points | BPRS Blunted Affect improvement ([2]; IDR n=8, 3 hours after last dose, baseline 15): 4 points | BPRS Tension improvement ([2]; IDR n=8, 3 hours after last dose, baseline 16): 5 | BPRS Guilt Feelings improvement ([2]; IDR n=8, 3 hours after last dose, baseline 34): 20 | BPRS Anxiety improvement ([2]; IDR n=8, 3 hours after last dose, baseline 37): 18 | BPRS Tension improvement ([2]; IDR n=8, day 1, baseline 16): 5 | MADRS Reduced Sleep percentage improvement ([2]; IDR n=8, day 1, baseline 25): 52.00% | MADRS Inner Tension improvement ([2]; IDR n=8, day 1, baseline 26): 20 | MADRS Lassitude improvement ([2]; IDR n=8, day 1, baseline 27): 22 | MADRS Pessimistic Thoughts improvement ([2]; IDR n=8, day 1, baseline 28): 24 | MADRS Concentration Difficulties improvement ([2]; IDR n=8, day 1, baseline 30): 29 | BPRS Guilt Feelings improvement ([2]; IDR n=8, day 1, baseline 34): 23 | BPRS Anxiety improvement ([2]; IDR n=8, day 1, baseline 37): 21 | BPRS Tension improvement ([2]; IDR n=8, day 7, baseline 16): 6 | MADRS Reduced Sleep percentage improvement ([2]; IDR n=8, day 7, baseline 25): 64.00% | MADRS Inner Tension improvement ([2]; IDR n=8, day 7, baseline 26): 14 | MADRS Lassitude improvement ([2]; IDR n=8, day 7, baseline 27): 24 | MADRS Pessimistic Thoughts improvement ([2]; IDR n=8, day 7, baseline 28): 25 | MADRS Concentration Difficulties improvement ([2]; IDR n=8, day 7, baseline 30): 21 | BPRS Guilt Feelings improvement ([2]; IDR n=8, day 7, baseline 34): 24 | BPRS Anxiety improvement ([2]; IDR n=8, day 7, baseline 37): 20 | SAEs ([2]; Part A): No SAEs | Patients with MADRS remission (total score <=10) ([2]; Part A, 12 mg n=4, day seven): 50% | Mean MADRS change from baseline ([2]; Part A, 12 mg, day seven): −21.0 | Mean MADRS change from baseline, percent ([2]; Part A, 12 mg, day seven): −65% | Patients with MADRS remission (total score <=10) ([2]; Part A, 18 mg n=4, day seven): 25% | Mean MADRS change from baseline, percent ([2]; Part A, 18 mg, day seven): −41% | ECG (3 hours), safety laboratory analyses (7 days), CADSS (3 hours, 1 day, 7 days) [3]: unremarkable | Reported adverse events (cramping left abdominal pain and headache, Day 0) [3]: mild, short-lasting and resolved spontaneously | Tolerability of the inhalation procedure [3]: well tolerated with no inhalation-related adverse events | Total MADRS improvement ([3]; 2 hr, baseline 29): 24 | Total MADRS score ([3]; 2 hr, baseline 29): 5 | BPRS Tension improvement ([3]; Day 1, baseline 6): 5 | Total MADRS improvement ([3]; Day 1, baseline 29): 29 | Total MADRS score ([3]; Day 1, baseline 29): 0 | BIMF item 16 (I worry about how other people judge me (as a mother)) score ([3]; Day 7, Day 0 score 3): 5 | BIMF item 11 (I take a little time each week to do something for myself) score ([3]; Day 7, Day 0 score 5): 6 | BIMF functional domain Adjustment score ([3]; Day 7, Day 0 score 5, maximum possible 12): 6 | BIMF functional domain Self-Care score ([3]; Day 7, Day 0 score 9, maximum possible 18): 13 | BIMF functional domain Infant Care score ([3]; Day 7, Day 0 score 12, maximum possible 12): 12 | BIMF functional domain Mother-Child Interaction score ([3]; Day 7, Day 0 score 15, maximum possible 18): 17 | BIMF functional domain Social Support score ([3]; Day 7, Day 0 score 17, maximum possible 18): 18 | BIMF functional domain Management score ([3]; Day 7, Day 0 score 28, maximum possible 36): 33 | BIMF functional domain Psychological Well-being score ([3]; Day 7, Day 0 score 44, maximum possible 60): 53 | Total MADRS improvement ([3]; Day 7, baseline 29): 28 | Total MADRS score ([3]; Day 7, baseline 29): 1 | BIMF total score improvement ([3]; Day 7, from 92 to 105 of possible 120): 14% | BIMF TOTAL Δ (Day 7) ([3]; Day 7 vs Day 0): 13 | BIMF functional domain Adjustment % Improvement ([3]; Day 7 vs Day 0): 20.00% | BIMF functional domain Infant Care % Improvement ([3]; Day 7 vs Day 0): 0.00% | BIMF functional domain Management % Improvement ([3]; Day 7 vs Day 0): 18% | BIMF functional domain Self-Care % Improvement ([3]; Day 7 vs Day 0): 44% | BPRS Tension improvement ([3]; Discharge, baseline 6): 5 | Standard criteria for MADRS response (at least 50% improvement) and MADRS remission (total score <=10) ([3]; IDR 6 mg then 12 mg): fulfilled | Time to clinical remission after administration ([3]; IDR 6 mg then 12 mg): ≤ 2 h | Changes in vital parameters ([3]; except temporary, clinically non-relevant increase in heart rate and blood pressure shortly after administration): no other noteworthy changes in vital parameters

CCN(CC)C(=O)[C@@H]1C=C2c3cccc4[nH]cc(c34)C[C@H]2N(C)C1 [LSD, lysergic acid diethylamide]
Duration of acute psychedelic effects [4]: several hours

CN(C)CCc1c[nH]c2ccc(O)cc12 [bufotenine]
Bufotenine concentrations when subjects receiving an uptitration scheme were included ([1]; uptitration scheme): Substantially similar observations

CNC1(c2ccccc2Cl)CCCCC1=O (stereo not drawn) [ketamine]
Duration of the anti-anhedonic effect [5]: up to 14 days | Time until decrease of anhedonia took effect [5]: ≤ 40 min
